Results as given in patent publication US20210393664A1, “THERAPEUTIC METHODS AND COMPOSITIONS FOR TREATING ACUTE MYELOID LEUKEMIA USING DEVIMISTAT” (Rafael Pharmaceuticals, Inc., priority 2018, published 2021).

Assays:
[1] = Leaching of DEHP from IV infusion sets and IV bags; type: physicochemical; conditions: DEHP-containing IV infusion sets and IV bags
[2] = Animal study NCL-049: extra air in the dead space of IV catheters during administration; type: in vivo; conditions: accidental co-administration of extra air in the dead space of IV catheters; animal studies (Study NCL-049)
Procedure: (§1) Diluted CPI-613® (devimistat) drug product must be administered over 2 hours, concurrently with D5W at the rate of 125 mL/hour, by IV infusion via a central line catheter, using an infusion pump, that is free flowing and free of air in the dead space of the IV catheter. This is done to minimize vascular irritation, inflammation and acute toxicity of CPI-613® (devimistat) (Study NCL-049). […] To avoid local reactions at and around the site of administration, CPI-613® (devimistat) must be administered via a central IV catheter.

[3] = set-up: species or system animal; conditions: in vivo, iv
Procedure: as §1

[4] = Adverse events by relatedness to devimistat; type: in vivo, human; conditions: patients
From the text: An AE can therefore be any unfavorable sign (including an abnormal laboratory finding), symptom, or disease temporarily associated with the study treatment, whether or not related to the investigational product.
Probably Related—A clinical event follows a reasonable temporal sequence from the time of Investigational Product (CPI-613®) administration. The toxicity cannot be reasonably explained by other factors such as the subjects clinical state or concurrent medical condition, or concurrent medication(s).
Possibly Related—A clinical event follows a reasonable temporal sequence from the time of active Investigational Product (CPI-613®) administration, but could also have been produced by other factors such as the subjects clinical state, or concurrent medical condition, or concurrent medication(s).

Which results are given for `O=C(O)CCCCC(CCSCc1ccccc1)SCc1ccccc1` (stereo not shown) [devimistat, 6,8-bis-benzylthio-octanoic acid]?
leaching of DEHP [1]: can cause leaching of DEHP from IV infusion sets and IV bags; acute toxicity [2]: potential to induce acute toxicity; local inflammation [3]: significant local inflammation; adverse events probably related [4]: Nausea, Vomiting, Diarrhea, Increased creatinine, Neutropenia, Hyperkalemia, Hypoalbuminemia, Hypophosphatemia, Hyponatremia, Fatigue, Platelet count decreased, Renal failure (reversible), Glomerular filtration rate (decreased), Hemoglobin (anemia)
